Laboratory results published in PMC7311426, “An amphipathic peptide with antibiotic activity against multidrug-resistant Gram-negative bacteria” (Nature Communications, 2020).
Values after ≈ are worked out from the molar mass of the structure shown. Residues, ends and D or L forms follow the SMILES beside them.

How the values were obtained:
Assay in all cases: microbe, parasite or virus in culture
A. baumannii = A. baumannii ATCC 19636 type strain; MHB; mode of 6 replicates
Description: (§1) Antimicrobial activity of arenicin-3 and its analogs was tested against a panel of bacterial and yeast strains by in vitro broth microdilution (BMD) assay with minimum inhibitory concentration (MIC) determination. Strains were purchased from American Type Culture Collection (ATCC) or obtained from clinical collaborators (full strain profiles provided in Supplementary Data 3). All peptides were prepared in Ringer’s acetate solution, and subsequently diluted fresh in water for each independent assay.
(§2) Assays were performed in Mueller Hinton broth (MHB; BD, Cat. No. 211443) for bacteria, and yeast extract-peptone dextrose (YPD; Sigma-Aldrich, Y1500) for yeast. The concentrations of the peptides and comparator antibiotics/antifungals in the assay wells ranged from either 128 or 64 μg mL^−1, to 0.06 or 0.03 μg mL^−1 as a 12-point dose response plated as a 2-fold dilution series across the wells of the plate in duplicate for each independent biological replicate, using a final cell density of 5 × 10^5 CFU mL^−1 and 2.5 × 10^3 CFU mL^−1 for bacteria and yeast respectively. Final assay volumes were 100 μL per well with MICs determined visually following 18-20 h incubation at 37 °C for bacteria, 24 h incubation at 35 °C for Candida albicans, and 24 h incubation at 35 °C with resazurin addition (0.006%; Sigma-Aldrich, Cat # R7017) for a further 3 h for Cryptococcus neoformans, without shaking. Additional bacterial and yeast susceptibility assays were performed in Cation-Adjusted Mueller Hinton Broth (CAMHB; BD, Cat No. 212322) and Roswell Park Memorial Institute (RPMI) 1640 culture medium (Life Technologies Australia, Cat No. 21870092), respectively, as recommended by CLSI guidelines (M07 11th ed[36] and M27 4th ed[37]). […] Agarose MICs were determined in MHB with 1% agarose (Bioline molecular grade; Cat no: BIO-41025; high purity, high gel strength). All experiments were performed a minimum of six replicates (n ≥ 6).

E. coli = E. coli ATCC 25922 FDA control strain; MHB; mode of 6 independent biological replicates
Description: as §1, §2

K. pneumoniae = K. pneumoniae ATCC 13883 type strain (polymyxin/colistin heteroresistant); MHB; mode of 6 replicates
Description: as §1, §2

P. aeruginosa = P. aeruginosa ATCC 27853 control strain; MHB; mode of 6 replicates
Description: as §1, §2

S. aureus = S. aureus ATCC 25923 MSSA; MHB; mode of 6 replicates
Description: as §1, §2

[1] = test system: A. baumannii clinical isolates
Description: The in vitro activity of AA139 and comparator antimicrobials was determined in two panels of clinical isolates of E. coli, K. pneumoniae, P. aeruginosa, and A. baumannii (Supplementary Table 3), and MIC90 presented. The US panel consisted of 331 clinical isolates from 2010 to 2012. It was tested by BMD in accordance with the CLSI guidelines (M07-A9, 2012)[39]. […] AA139 was diluted in 0.01% acetic acid/0.1% bovine serum albumin. Sterile polypropylene culture cluster round-bottom 96-well plates (Costar # 3879) were used for testing. The worldwide panel consisted of 445 clinical isolates from 2011 to 2013, geographically divided into Asia, Europe, North America, and Rest of World (Middle East, Latin America, Africa, and South Pacific) with each region representing ~25% of the isolates. It was tested by broth microdilution in accordance with the CLSI guidelines (M07-A9, 2012)[39]. […] The test media was CAMHB (Becton Dickinson). AA139 and polymyxin B were tested in media supplemented with 0.002% Tween 80 (Calbiochem). MIC90 values were calculated for all or subsets of the isolates. MIC correlation between AA139 and colistin was analyzed with data from the US panel.

With `CC(C)[C@@H]1NC(=O)[C@H](Cc2ccc(O)cc2)NC(=O)[C@H](Cc2c[nH]c3ccccc23)NC(=O)[C@@H](NC(=O)[C@@H](N)Cc2ccccc2)CSSC[C@@H](C(=O)N[C@@H](CC(N)=O)C(=O)O)NC(=O)[C@H](CCCNC(=N)N)NC(=O)[C@H](CCCNC(=N)N)NC(=O)[C@H](Cc2ccc(O)cc2)NC(=O)[C@@H]2CSSC[C@H](NC1=O)C(=O)N[C@@H](C)C(=O)N[C@@H](CCCNC(=N)N)C(=O)N[C@@H](CCCNC(=N)N)C(=O)N[C@@H](CC(N)=O)C(=O)NCC(=O)N[C@@H](C)C(=O)N[C@@H](CCCNC(=N)N)C(=O)N[C@@H](C(C)C)C(=O)N2` [AB0015] (HELM PEPTIDE1{F.C.W.Y.V.C.A.R.R.N.G.A.R.V.C.Y.R.R.C.N}$PEPTIDE1,PEPTIDE1,2:R3-19:R3|PEPTIDE1,PEPTIDE1,6:R3-15:R3$$$V2.0) the “BMD MIC” value (A. baumannii) was 0.5 µg/mL, the “BMD MIC” value (E. coli) was 0.5 µg/mL and the “BMD MIC” value (K. pneumoniae) was 2 µg/mL. For the same compound, the “BMD MIC” value (P. aeruginosa) was 1 µg/mL and the “BMD MIC” value (S. aureus) was greater than 64 µg/mL.

With `CC(C)(O/N=C(\C(=O)N[C@@H]1C(=O)N2C(C(=O)[O-])=C(C[n+]3ccccc3)CS[C@H]12)c1csc(N)n1)C(=O)O` [Ceftaz] the MIC ([1]; US isolates 2010-2012, isolate CID 1919446, Rep 1) was 4 µg/mL (≈ 7.32 µM), the MIC ([1]; US isolates 2010-2012, isolate CID 1919446, Rep 2) was 4 µg/mL (≈ 7.32 µM) and the MIC ([1]; US isolates 2010-2012, isolate CID 1919519, Rep 1) was greater than 32 µg/mL. It also gave an MIC ([1]; US isolates 2010-2012, isolate CID 1919519, Rep 2) greater than 32 µg/mL, an MIC ([1]; US isolates 2010-2012, isolate CID 1919714, Rep 1) greater than 32 µg/mL and an MIC ([1]; US isolates 2010-2012, isolate CID 1919714, Rep 2) greater than 32 µg/mL. For the same compound, the MIC ([1]; US isolates 2010-2012, isolate CID 1919942, Rep 1) was 8 µg/mL (≈ 14.6 µM), the MIC ([1]; US isolates 2010-2012, isolate CID 1919942, Rep 2) was 4 µg/mL (≈ 7.32 µM) and the MIC ([1]; US isolates 2010-2012, isolate CID 1930670, Rep 1) was greater than 32 µg/mL. For the same compound, the MIC ([1]; US isolates 2010-2012, isolate CID 1930670, Rep 2) was greater than 32 µg/mL, the MIC ([1]; US isolates 2010-2012, isolate CID 1930676, Rep 1) was 4 µg/mL (≈ 7.32 µM) and the MIC ([1]; US isolates 2010-2012, isolate CID 1930676, Rep 2) was 4 µg/mL (≈ 7.32 µM). The MIC ([1]; US isolates 2010-2012, isolate CID 2727597, Rep 1) was greater than 32 µg/mL, the MIC ([1]; US isolates 2010-2012, isolate CID 2727597, Rep 2) was greater than 32 µg/mL and the MIC ([1]; US isolates 2010-2012, isolate CID 2727598, Rep 1) was greater than 32 µg/mL. The MIC ([1]; US isolates 2010-2012, isolate CID 2727598, Rep 2) was greater than 32 µg/mL, the MIC ([1]; US isolates 2010-2012, isolate CID 2727898, Rep 1) was 2 µg/mL (≈ 3.66 µM) and the MIC ([1]; US isolates 2010-2012, isolate CID 2727898, Rep 2) was 4 µg/mL (≈ 7.32 µM). The MIC ([1]; US isolates 2010-2012, isolate CID 2728115, Rep 1) was greater than 32 µg/mL, the MIC ([1]; US isolates 2010-2012, isolate CID 2728115, Rep 2) was greater than 32 µg/mL and the MIC ([1]; US isolates 2010-2012, isolate CID 2728119, Rep 1) was 32 µg/mL (≈ 58.5 µM). It also gave an MIC ([1]; US isolates 2010-2012, isolate CID 2728119, Rep 2) of 32 µg/mL (≈ 58.5 µM), an MIC ([1]; US isolates 2010-2012, isolate CID 2728650, Rep 1) greater than 32 µg/mL and an MIC ([1]; US isolates 2010-2012, isolate CID 2728650, Rep 2) greater than 32 µg/mL. It also gave an MIC ([1]; US isolates 2010-2012, isolate CID 2728663, Rep 1) greater than 32 µg/mL, an MIC ([1]; US isolates 2010-2012, isolate CID 2728663, Rep 2) greater than 32 µg/mL and an MIC ([1]; US isolates 2010-2012, isolate CID 2732481, Rep 1) of 32 µg/mL (≈ 58.5 µM). It also gave an MIC ([1]; US isolates 2010-2012, isolate CID 2732481, Rep 2) of 32 µg/mL (≈ 58.5 µM), an MIC ([1]; US isolates 2010-2012, isolate CID 2732486, Rep 1) greater than 32 µg/mL and an MIC ([1]; US isolates 2010-2012, isolate CID 2732486, Rep 2) of 32 µg/mL (≈ 58.5 µM). For the same compound, the MIC ([1]; US isolates 2010-2012, isolate CID 2762740, Rep 1) was greater than 32 µg/mL, the MIC ([1]; US isolates 2010-2012, isolate CID 2762740, Rep 2) was greater than 32 µg/mL and the MIC ([1]; US isolates 2010-2012, isolate CID 2801947, Rep 1) was 2 µg/mL (≈ 3.66 µM). It also gave an MIC ([1]; US isolates 2010-2012, isolate CID 2801947, Rep 2) of 2 µg/mL (≈ 3.66 µM), an MIC ([1]; US isolates 2010-2012, isolate CID 2801949, Rep 1) of 8 µg/mL (≈ 14.6 µM) and an MIC ([1]; US isolates 2010-2012, isolate CID 2801949, Rep 2) of 2 µg/mL (≈ 3.66 µM). It also gave an MIC ([1]; US isolates 2010-2012, isolate CID 2802027, Rep 1) greater than 32 µg/mL, an MIC ([1]; US isolates 2010-2012, isolate CID 2802027, Rep 2) greater than 32 µg/mL and an MIC ([1]; US isolates 2010-2012, isolate CID 2802028, Rep 1) greater than 32 µg/mL. The MIC ([1]; US isolates 2010-2012, isolate CID 2802028, Rep 2) was greater than 32 µg/mL, the MIC ([1]; US isolates 2010-2012, isolate CID 2802029, Rep 1) was greater than 32 µg/mL and the MIC ([1]; US isolates 2010-2012, isolate CID 2802029, Rep 2) was greater than 32 µg/mL. The MIC ([1]; US isolates 2010-2012, isolate CID 2802031, Rep 1) was greater than 32 µg/mL, the MIC ([1]; US isolates 2010-2012, isolate CID 2802031, Rep 2) was greater than 32 µg/mL and the MIC ([1]; US isolates 2010-2012, isolate CID 2802109, Rep 2) was 32 µg/mL (≈ 58.5 µM). The MIC ([1]; US isolates 2010-2012, isolate CID 2802111, Rep 2) was 8 µg/mL (≈ 14.6 µM), the MIC ([1]; US isolates 2010-2012, isolate CID 2802187, Rep 1) was 4 µg/mL (≈ 7.32 µM) and the MIC ([1]; US isolates 2010-2012, isolate CID 2802187, Rep 2) was 4 µg/mL (≈ 7.32 µM).
